Results reported in PMC4569013, “Massive Bioaccumulation and Self‐Assembly of Phenazine Compounds in Live Cells” (Advanced Science, 2015).

Experiments:
RAW264.7 macrophages [1] = assay: Cell accumulation experiment, transmitted light microscopy of cellular staining pattern; format: cell-based; conditions: for Inferred uptake: inferred from staining pattern after 72 hour incubation; for Observed cellular staining pattern (Notes): live cells, 72 hour incubation, 5 × 10^−6 M (2.5 × 10^−6 M for I); for Staining in fixed cells: methanol-fixed cells incubated 72 h with compound (control)
Protocol: Cell Accumulation Experiments and Transmitted Light Microscopic Examination: […] After a 24 h incubation (37 °C, 5% CO2), cells were incubated with solution of clofazmine or its chemical derivatives (300 μL of 5 × 10^−6 m concentration; measured cell viability ranging from 85% to 97% for all compounds tested at this concentration; Figure 1) in DMEM (no phenol red; plus 1 × 10^−3 M sodium pyruvate and 5% FBS). For Compound “I,” 2.5 × 10^−6 M of compound solution in media was used for the RAW 264.7 macrophages incubation because of lower cell viability at higher concentrations (IC50 = (3.95 ± 0.11) × 10^−6 M). A solution of clofazmine or other chemical derivatives was made by a diluting stock solutions (2.5 × 10^−3 M in DMSO; 10 × 10^−3 M stock in DMSO were stored at −80 °C for further use) into DMEM with 5% FBS. […] The extracellular concentration of each compound in each well was maintained by daily replacement of the compound‐containing media. After 72 h of incubation with clofazmine or its derivatives, compound‐containing media were removed and cells were washed twice with media. Live cells in the chambered glasses were examined under inverted transmitted light microscopy (Nikon Eclipse Ti microscope) with a 40× objective and color camera. As a control experiment, fixed cells were also microscopically examined after incubation with the compounds. Cells were seeded on the chambered cover glasses at the density of 1.5 × 10^4 cells cm^−2 (RAW264.7 macrophages) or 2.5 × 10^4 cells cm^−2 (MDCK epithelial cells). After an overnight incubation (37 °C, 5% CO2), media was removed from the wells and cold methanol (−20 °C) was added to each well. After 30 s, remaining methanol was removed by washing with media with 5% FBS. Fixed cells were incubated (37 °C, 5% CO2) with clofazmine or derivatives (300 μL of 5 × 10^−6 M; 2.5 × 10^−6 M for I) in media with 5% FBS. After 72 h, fixed RAW264.7 or MDCK cells were washed with media and examined using the same transmitted microscopy conditions as the live cells.

[2] = Solubility measurements in cell culture media (DMEM) with or without FBS; format: physicochemical; conditions: at the concentrations added to the cells
Protocol: Solubility Measurements: Solutions containing the phenazine derivatives were made in cell culture media (DMEM) with or without FBS (10%). After a 24 h incubation, the solutions were centrifuged (10 000 × g, 10 min), the supernatant was removed and the precipitate was dissolved in 9 M H2SO4. The supernatant was diluted with 10 M NaOH to precipitate the remaining solubilized compound. The diluted supernatant was centrifuged (10 000 × g, 10 min) followed by dissolution of the precipitate in 9 M H2SO4. Both fractions were spectrophotometrically measured with a Biotek microplate spectrophotometer (λ = 540 nm) and phenazine content was determined using calibrated clofazimine standards.

[3] = design: method as in PMID 21800872; conditions: DMEM with 5% FBS; cited from earlier work
RAW264.7 macrophages [4] = assay: XTT colorimetric cytotoxicity assay; format: cell-based; conditions: Mus musculus, RAW 264.7 macrophages, 72 h incubation, read-out: IC50 (cell viability, XTT)
Protocol: Cytotoxicity Measurements: A 3′‐bis(4‐methoxy‐6‐nitro)benzene‐sulfonic acid hydrate (XTT) colorimetric assay was performed to assess the cytotoxicity of the clofazmine derivatives in RAW264.7 macrophages or MDCK epithelial cells using a Cell Proliferation Kit II (Roche Chemicals, Indianapolis, IN). […] The absorbance value in each well was measured at 495 nm against a reference wavelength at 650 nm using a microplate reader (Synergy 2, BioTek Instruments, Winooski, VT). […] The IC50 value for each compound was calculated from the concentration‐response curve generated by a nonlinear regression (curve fit) method in GraphPad Prism version 5.0 (GraphPad Software, Inc., San Diego, CA). The concentration of clofazimine or its chemical derivatives used for further in vitro cell studies was determined based on cell viability (%) assay results (see the next section).

RAW264.7 macrophages [5] = assay: Confocal fluorescence microscopy, intracellular localization of inclusions; format: cell-based; conditions: 5 × 10^−6 M, 72 h, live cells
Protocol: (§1) Confocal Fluorescent Microscopy: A Nikon A1 confocal microscope was used for further investigation of live cells incubated with chiral pairs of compounds (T and U) and the parent compound, P. Since crystals or vesicular forms containing chemicals inside the cells incubated with Compound P, T, or U were fluorescent when viewed with the TRITC filter sets, intracellular distribution of these compounds in RAW264.7 or MDCK cells were visualized using a Nikon A1 confocal microscopy (Nikon Instruments Inc., Melville, NY) equipped with diode‐based lasers and a Nikon Apo 60×/1.4 NA oil immersion lens. Briefly, RAW264.7 macrophages or MDCK epithelial cells were seeded in the 8‐well Nunc Lab‐Tek II chambered (#1.5) cover glasses (Thermo Scientific, Pittsburgh, PA) at a density of 8 × 10^3 cells cm^−2 (RAW264.7 cells) or 1.5 × 10^4 cells cm^−2 (MDCK cells) and allowed to adhere overnight (37 °C, 5% CO2). Then, 5 × 10^−6 M of Compound “P” or the related isomers, “T” or “U” in DMEM with 5% FBS (300 μL) was added to the cells and the cells were incubated for 72 h (37 °C, 5% CO2). For live cell imaging, after the removal of media, cells were washed with HBSS buffer twice. Hoechst 33342 (Invitrogen, Carlsbad, CA) was used for staining cell nuclei and FM 1‐43 (Molecular Probes T35356, Invitrogen) for the plasma membrane. Cells were incubated with 300 μL of 1:1 (v/v) dye mixtures of 5 μg mL^−1 Hoechst 33342 and 7 × 10^−6 M FM 1‐43 in HBSS for 15 min at room temperature. Without fixative, the confocal imaging of the live cells was performed using lasers for DAPI (excitation/emission wavelength: 405 nm/450 ± 25 nm), FITC (488 nm/525 ± 25 nm), and TRITC (561 nm/596 ± 25 nm) channels. Z‐stack images of the cells were captured along the Z‐axis (interval, 1 μm) in three fluorescence channels and analyzed by using the Nikon NIS‐Elements 3.2 confocal software (Nikon Instruments Inc., Melville, NY). […]

MDCK epithelial cells = assay: as above; format: cell-based, Canine; conditions: 5 × 10^−6 M, 72 h, live cells
Protocol: as §1

Row | Structure (SMILES) | Inferred uptake (RAW264.7 macrophages [1]) | Observed cellular staining pattern (Notes) (RAW264.7 macrophages [1]) | Solubility in serum containing media [2] | Precipitate formation in media [3] | Cellular staining relative to clofazimine (RAW264.7 macrophages [1]; live macrophages, 72 h) | Staining in fixed cells (RAW264.7 macrophages [1]) | IC50 (RAW264.7 macrophages [4]) [µM] | Intracellular localization of compound (fluorescence, TRITC channel) (RAW264.7 macrophages [5]) | Intracellular localization of compound (fluorescence, TRITC channel) (MDCK epithelial cells)
1 | CC(C)/N=c1\cc2n(-c3ccc(Cl)cc3)c3ccccc3nc-2cc1Nc1ccc(Cl)cc1 [Clofazimine, clofazimine, reference compound] | Moderate | Orange-brown staining pattern associated with perinuclear cytoplasmic vesicles | stably solubilized | did not form visible precipitates | – | – | – | – | –
2 | OCCN=c1cc2n(-c3ccc(Cl)cc3)c3ccccc3nc-2cc1Nc1ccc(Cl)cc1 [I] | Excellent | Dark brown, crystal-like inclusions present in live cells | – | – | comparable in morphology and intensity to those of clofazimine | absent in fixed cells | 3.95 | – | –
3 | CC(CN=c1cc2n(-c3ccc(Cl)cc3)c3ccccc3nc-2cc1Nc1ccc(Cl)cc1)c1ccccc1 (centres unmarked) [Compound T] | Moderate | Faint orange perinuclear vesicles are present in live cells | – | – | – | Staining not observed in fixed cells | – | localized at the periphery of the cell nuclei | localized at the periphery of the cell nuclei
